Values of other authors as cited in article PMC3538728 (PLoS ONE, 2013).
Read-outs that look alike come from different tables or passages of the source.

Legend:
[1] = design: method as in PMID 19527190; conditions: early in preclinical studies; cited from earlier work
[2] = biological target: γ-secretase; design: method as in PMID 19694467, PMID 21141968, PMID 19402777, PMID 22323718, PMID 22798753; conditions: cited from earlier work
[3] = cited from earlier work; for outcome in phase III clinical trials: relative to placebo

## C[C@H](NC(=O)[C@@H](O)c1cc(F)cc(F)c1)C(=O)N[C@@H]1C(=O)N(C)c2ccccc2-c2ccccc21 [LY-411,575, N2-[(2S)-2-(3,5-difluorophenyl)-2-hydroxyethanoyl]-N1-[(7S)-5-methyl-6-oxo-6,7-di hydro-5H-dibenzo[b,d]azepin-7-yl]-L-alaninamide]
[1]
  toxicity in preclinical studies: toxic side-effects

## CC(C)[C@H](O)C(=O)N[C@@H](C)C(=O)N[C@@H]1C(=O)N(C)CCc2ccccc21 [semagacestat]
[2]
  IC50: ~0.02 µM
[3]
  outcome in phase III clinical trials: irreversibly advance cognitive decline
[3]; listed as Semagacestat
  outcome in phase III clinical trials: toxic side-effects and irreversible cognitive decline
[3]; preclinical studies and short phase I and phase II clinical trials
  tolerance: good tolerance

## NC(=O)[C@@H](CCC(F)(F)F)N(Cc1ccc(-c2ncon2)cc1F)S(=O)(=O)c1ccc(Cl)cc1 [avagacestat]
[3]; phase II
  outcome in phase II clinical studies: Dose dependent cognitive decline
